From paper PMC7835894 (Molecules, 2021)
pIC50: −log10 of the molar value.

How the values were obtained:
Type in all cases: cell-based, human
Caco-2 cells [1] = experiment: Annexin V-FITC/PI apoptosis assay (flow cytometry); settings: Caco-2, IC50 concentration
Experimental: The ability of synthetic retinoids to induce apoptosis in one of the sensitive cancer cell lines (namely, Caco-2 cells) was detected by Annexin V-FITC and PI according to the protocol of the detection kit (Beckman Coulter, Brea, CA, USA). […] Cells were collected, washed with phosphate-buffered saline (PBS) (Lonza), and resuspended in 1 mL of binding buffer. 100 µL cell suspension was incubated with 1 µL FITC-labeled Annexin V and 5 µL PI for 15 min at 4 °C in the dark. Finally, 400 µL ice-cold binding buffer was added, and the apoptotic cells in each sample were analyzed by Beckman Coulter Epics XL flow cytometer. Apoptotic index (AI) was calculated as the number of apoptotic cell deaths expressed as a percentage from the total gated cells.

Caco-2 cells [2] = experiment: Intracellular and secreted glutamate assay; settings: Caco-2, IC50 doses, 24 h
Experimental: The glutamate assay was performed using the Glutamate Assay Kit (Sigma-Aldrich, MAK004, St. Louis, MO, USA) according to the manufacturer’s protocol. […] Cells were lysed using 100 µL glutamate assay buffer and insoluble cell debris was then removed by centrifugation at 13,000× g for 10 min. The supernatant was transferred to a 10-KDa molecular weight cut-off (MWCO) spin filter (Sigma-Aldrich, St. Louis, MO, USA) to remove any particulates in the sample, and then was brought to a final volume of 50 µL with glutamate assay buffer and transferred to a 96-well plate. Finally, 100 µL of reaction mix was added to each well and the mixture was incubated for 30 min at 37 °C. The optical density was measured at 450 nm using BioTek 800 TS microplate reader (BioTek, Winooski, VT, USA). For the measurement of secreted glutamate, 50 μL samples of extracellular culture medium were placed in a 96-well plate and the kit’s enzymatic reaction mix was added to induce a glutamate-dependent color change. After 30 min incubation, the reaction products were read at the same wavelength. For determination of glutamate concentration (nmole/µL), a calibration curve was constructed using supplied 0.1 M glutamate standard with different dilutions (0 (blank), 2, 4, 6, 8 and 10 nmole per well). Glutamate concentration was measured according to the manufacturer’s instruction and as documented in earlier studies.

Caco-2 cells [3] = experiment: Isobologram analysis of retinoid + 5-FU combinations (MTT); settings: Caco-2, combination with 5-FU; for CI (combination index): CI < 1 is synergy
Excerpt: This mathematical model allows the determination of CI (combination index) values based on the Equation (1):CI = d1/D1 + d2/D2 (1) where d1 and d2 are the doses of drug 1 and drug 2 that, when given in combination, produce a specific response. D1 and D2 are the doses of drug 1 and drug 2, that, when given individually, produce the same response. Also, CI < 1 is synergy, CI = 1 is additivity and CI > 1 is antagonism
DRI < 1 indicates unfavorable dose reduction and ineffective combination.

WRN = experiment: Gene expression analysis (qPCR) in Caco-2 cells; settings: Caco-2, IC50, 24 h, relative to 0.1% DMSO control
Experimental: (§1) Sensitive cancer cell line (Caco-2) was used for gene expression analysis of different genes controlling differentiation, apoptosis, tumor resistance, aggressiveness, and metastasis. […] After incubation, cells were harvested, and the total RNA was purified using Favor-Prep^TM Blood/Cultured cell total RNA purification mini kit (Favorgen Biotech Corp., Ping-Tung, Taiwan). RNA was reverse transcribed into the first-strand cDNA using Revert Aid First Strand cDNA Synthesis Kit (Thermo Scientific, Waltham, MA, USA). HERA^PLUS SYBR® Green qPCR Kit (Willowfort, Nottingham, UK) was utilized in quantitative polymerase chain reactions (qPCR). Gene expression was analyzed and quantified using the 2ˆ^−ΔΔCT method.

Bax = experiment: Gene expression analysis (qPCR) in Caco-2 cells; settings: Caco-2, IC50, 24 h, relative to 0.1% DMSO control
Experimental: as §1

E-cadherin = experiment: Gene expression analysis (qPCR) in Caco-2 cells; settings: Caco-2, IC50, 24 h, relative to 0.1% DMSO control
Experimental: as §1

Caspase-3 (Cas-3) = experiment: Gene expression analysis (qPCR) in Caco-2 cells; settings: Caco-2, IC50, 24 h, relative to 0.1% DMSO control
Experimental: as §1

p53 = experiment: Gene expression analysis (qPCR) in Caco-2 cells; settings: Caco-2, IC50, 24 h, relative to 0.1% DMSO control
Experimental: as §1

RAR-γ = experiment: Gene expression analysis (qPCR) in Caco-2 cells; settings: Caco-2, IC50, 24 h, relative to 0.1% DMSO control, normalized to GAPDH
Experimental: as §1

RAI2 = experiment: Gene expression analysis (qPCR) in Caco-2 cells; settings: Caco-2, IC50, 24 h, relative to 0.1% DMSO control
Experimental: as §1

RAR-α = experiment: Gene expression analysis (qPCR) in Caco-2 cells; settings: Caco-2, IC50, 24 h, relative to 0.1% DMSO control, normalized to GAPDH
Experimental: as §1

RAR-β = experiment: Gene expression analysis (qPCR) in Caco-2 cells; settings: Caco-2, IC50, 24 h, relative to 0.1% DMSO control, normalized to GAPDH
Experimental: as §1

Caspase-8 (Cas-8) = experiment: Gene expression analysis (qPCR) in Caco-2 cells; settings: Caco-2, IC50, 24 h, relative to 0.1% DMSO control
Experimental: as §1

cytochrome-C (Cyt-C) = experiment: Gene expression analysis (qPCR) in Caco-2 cells; settings: Caco-2, IC50, 24 h, relative to 0.1% DMSO control
Experimental: as §1

HT-29 = experiment: MTT antiproliferation assay; settings: for SI (selectivity index): HT-29, SI = IC50 (WI-38)/IC50 (cancer cell line); for pIC50: Homo sapiens, HT-29, MTT, 24 h, mean ± SEM
Experimental: The antiproliferation and cytotoxicity were assessed using 3-(4,5-dimethylthiazol-2-yl)-2,5-diphenyltetrazolium bromide (MTT, Serva) colorimetric assay. To investigate the antiproliferation, all cell lines were seeded at a density of 20,000 cells per well in 96-well plates and allowed to adhere overnight. […] These concentrations were prepared by diluting the stock solutions with serum-free culture media. The negative control cells were those treated with 0.1% DMSO solvent alone. The treated cells were handled in reduced light and maintained under standard culture growth conditions for 24 h. After the incubation period, MTT powder was prepared as a stock solution (5 mg/mL) and 20 μL of the MTT working reagent (final concentration 0.5 mg/mL) was added to each well. This was followed by incubation with MTT reagent for 4 h in a humidified atmosphere (37 °C, 5% CO2) with subsequent addition of 150 μL of DMSO solubilizing solvent and incubation for 20 min. The absorbance of solubilized violet formazan crystals was measured at 540 nm with Biotek 800 TS microplate reader. IC50 was calculated as the concentration of retinoid that produced 50% cell growth inhibition. For cytotoxicity assessment, WI-38 normal human fibroblast cells were used for the calculation of SI which is the ratio of IC50 retinoid (WI-38)/IC50 retinoid (cancer cell line).

Row | SMILES | % early apoptotic cells (C+−) (Caco-2 cells [1]; 12 h treatment) | % late apoptotic cells (C−+) (Caco-2 cells [1]; 12 h treatment) | % necrotic cells (C++) (Caco-2 cells [1]; 12 h treatment) | % viable cells (C−−) (Caco-2 cells [1]; 12 h treatment) | % early apoptotic cells (C+−) (Caco-2 cells [1]; 24 h treatment) | % late apoptotic cells (C−+) (Caco-2 cells [1]; 24 h treatment) | % necrotic cells (C++) (Caco-2 cells [1]; 24 h treatment) | % viable cells (C−−) (Caco-2 cells [1]; 24 h treatment) | released (extracellular) glutamate, magnitude of reduction (Caco-2 cells [2]) | DRI (dose reduction index) (Caco-2 cells [3]) | CI (combination index) (Caco-2 cells [3]) | % Apoptotic index (AI) (Caco-2 cells [1]; 12 h treatment) | WRN gene expression, fold change (WRN) | Bax gene expression, fold change (Bax) | E-cadherin gene expression, fold change (E-cadherin) | Cas-3 gene expression, fold change (Caspase-3 (Cas-3)) | p53 gene expression, fold change (p53) | RAR-γ gene expression, fold increase (RAR-γ) | RAI2 gene expression, fold change (RAI2) | RAR-α gene expression, fold increase (RAR-α) | further results
1 | CC1=C(/C=C/C(C)=C/C=C/C(C)=C/C(=O)O)C(C)(C)CCC1 [ATRA, All-trans retinoic acid, reference compound] | 11.99 ± 1.9% | 0.00% | 0.01% | 87.99 ± 15.0% | 47.4 ± 2.5 % | 0.0% | 0.28± 0.17% | 52.4 ± 11.5 % | 24.1% | – | – | – | – | – | – | – | – | – | – | – | –
2 | CC1(C)CCC(C)(C)c2cc(C#Cc3cccc(C(=O)O)c3)ccc21 [EC19, 3-(5,5,8,8-tetramethyl-5,6,7,8-tetrahydronaphthalen-2-ylethynyl) benzoic acid] | 6.30 ± 1.1% | 0.01% | 0.4 ± 0.1% | 93.65 ± 14.0% | 75.3 ± 13.8 % | 0.0% | 0.18 ± 0.05% | 24.5 ± 11.8 % | 1.4% | 4.5 ± 0.6 | 0.46 ± 0.06 | 6.3% | ~ 40 fold | 1.9 fold | 54 fold | 8.6 fold | 1.2 fold | without affecting | 4.4 fold | 2.6 fold | RAR-β gene expression, fold increase (RAR-β): 131 fold; Cas-8 gene expression, fold change (Caspase-8 (Cas-8)): 7.1 fold; Cyt-C gene expression, fold change (cytochrome-C (Cyt-C)): 3.6 fold; SI (selectivity index) (HT-29): <1; pIC50 (HT-29): < 4.00
3 | CC1(C)CCC(C)(C)c2cc(C#Cc3ccc(C(=O)O)cc3)ccc21 [EC23, 4-(5,5,8,8-tetramethyl-5,6,7,8-tetrahydronaphthalen-2-ylethynyl) benzoic acid] | 8.34 ± 1.1% | 0.01% | 0.05% | 91.61 ± 13.7% | 65.4 ± 18.4 % | 0.0% | 0.16 ± 0.14% | 34.4 ± 18.3 % | 5% | 7.5 ± 0.8 | 0.27 ± 0.03 | 8.3% | ~ 40 fold | not able to induce any significant change | 16.3 fold | did not induce significant expression | did not induce p53 upregulation | 2.3 fold | 1.6 fold | no effect | RAR-β gene expression, fold increase (RAR-β): no effect; Cas-8 gene expression, fold change (Caspase-8 (Cas-8)): did not induce significant expression; Cyt-C gene expression, fold change (cytochrome-C (Cyt-C)): 2.8 fold; SI (selectivity index) (HT-29): <1; pIC50 (HT-29): < 4.00
